Assay results published in US10005788B2, “Bicyclic fused pyrimidine compounds as TAM inhibitors” (Incyte Corporation, priority 2015, dated 2018).

biological target: JAK2 (Homo sapiens (Human), UniProt O60674); experiment: not given; conditions: ratio of IC50, 1 mM ATP; cited from earlier work
Sequence (O60674 whole entry, species assumed): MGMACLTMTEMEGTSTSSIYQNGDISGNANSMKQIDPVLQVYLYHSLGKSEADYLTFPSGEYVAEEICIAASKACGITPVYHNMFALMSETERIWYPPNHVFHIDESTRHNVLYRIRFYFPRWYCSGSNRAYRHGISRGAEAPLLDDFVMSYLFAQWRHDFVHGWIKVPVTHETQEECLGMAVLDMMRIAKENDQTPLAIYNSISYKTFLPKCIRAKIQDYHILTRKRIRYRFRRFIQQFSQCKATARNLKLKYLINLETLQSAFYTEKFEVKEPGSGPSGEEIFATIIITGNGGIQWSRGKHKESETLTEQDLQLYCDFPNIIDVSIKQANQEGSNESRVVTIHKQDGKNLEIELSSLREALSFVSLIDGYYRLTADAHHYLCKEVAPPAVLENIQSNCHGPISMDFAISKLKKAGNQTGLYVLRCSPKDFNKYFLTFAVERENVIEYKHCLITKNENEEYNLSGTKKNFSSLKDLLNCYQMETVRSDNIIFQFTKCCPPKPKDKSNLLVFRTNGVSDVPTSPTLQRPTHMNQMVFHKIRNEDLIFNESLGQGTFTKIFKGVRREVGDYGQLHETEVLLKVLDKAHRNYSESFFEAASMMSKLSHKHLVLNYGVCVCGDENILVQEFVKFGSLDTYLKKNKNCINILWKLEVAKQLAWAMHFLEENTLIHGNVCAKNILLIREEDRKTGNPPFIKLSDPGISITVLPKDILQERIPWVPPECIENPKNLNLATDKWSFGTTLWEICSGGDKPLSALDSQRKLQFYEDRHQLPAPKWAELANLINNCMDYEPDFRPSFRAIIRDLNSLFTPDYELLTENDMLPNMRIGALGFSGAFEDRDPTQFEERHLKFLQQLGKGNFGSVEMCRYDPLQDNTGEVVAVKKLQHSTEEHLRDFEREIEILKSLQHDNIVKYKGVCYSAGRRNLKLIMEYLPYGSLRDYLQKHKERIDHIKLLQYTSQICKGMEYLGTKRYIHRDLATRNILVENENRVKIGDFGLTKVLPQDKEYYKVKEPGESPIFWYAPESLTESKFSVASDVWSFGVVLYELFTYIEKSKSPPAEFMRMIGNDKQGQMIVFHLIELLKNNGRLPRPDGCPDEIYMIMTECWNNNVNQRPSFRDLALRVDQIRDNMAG

JAK2/JAK1, >10:
N#CCC(C1CCN(c2cccc(Cl)n2)C1)n1cc(-c2ncnc3[nH]ccc23)cn1 (single isomer, unassigned) [Compound 3, 3-[1-(6-chloropyridin-2-yl)pyrrolidin-3-yl]-3-[4-(7H-pyrrolo[2,3-d]pyrimidin-4-yl)-1H-pyrazol-1-yl]propanenitrile]
C[C@@H](O)c1nc2cnc3ccsc3c2n1[C@H]1CC[C@H](CC#N)OC1 [Compound 1, ((2R,5S)-5-{2-[(1R)-1-hydroxyethyl]-1H-imidazo[4,5-d]thieno[3,2-b]pyridin-1-yl}tetrahydro-2H-pyran-2-yl)acetonitrile]
N#CCC(C1CCN(c2nc3cccnc3o2)C1)n1cc(-c2ncnc3[nH]ccc23)cn1 (centres unmarked) [Compound 4, 3-(1-[1,3]oxazolo[5,4-b]pyridin-2-ylpyrrolidin-3-yl)-3-[4-(7H-pyrrolo[2,3-d]pyrimidin-4-yl)-1H-pyrazol-1-yl]propanenitrile]
N#CCC(CN1CCN(C(=O)c2ccc(C#N)cc2F)CC1)n1cc(-c2ncnc3[nH]ccc23)cn1 (centres unmarked) [Compound 5]
N#CCC(CN1CCN(C(=O)c2ccc(C#N)cc2F)CC1)n1ccc(-c2ncnc3[nH]ccc23)c1 (centres unmarked) [Compound 6, 4-[(4-{3-cyano-2-[3-(7H-pyrrolo[2,3-d]pyrimidin-4-yl)-1H-pyrrol-1-yl]propyl}piperazin-1-yl)carbonyl]-3-fluorobenzonitrile]
N#CCC1(n2cc(-c3ncnc4[nH]ccc34)cn2)CN(C2CCN(C(=O)c3ccnc(C(F)(F)F)c3F)CC2)C1 [Compound 7, {1-{1-[3-Fluoro-2-(trifluoromethyl)isonicotinoyl]piperidin-4-yl}-3-[4-(7H-pyrrolo[2,3-d]pyrimidin-4-yl)-1H-pyrazol-1-yl]azetidin-3-yl}acetonitrile]
N#CCC1(n2cc(-c3ncnc4[nH]ccc34)cn2)CN(C2CCN(C(=O)Nc3ccc(F)cc3C(F)(F)F)CC2)C1 [Compound 8, 4-{3-(Cyanomethyl)-3-[4-(7H-pyrrolo[2,3-d]pyrimidin-4-yl)-1H-pyrazol-1-yl]azetidin-1-yl}-N-[4-fluoro-2-(trifluoromethyl)phenyl]piperidine-1-carboxamide]
N#CCC1(n2cc(-c3ncnc4[nH]ccc34)cn2)CN(C2CCN(C(=O)c3ccnc(C(F)(F)F)n3)CC2)C1 [Compound 9, [3-[4-(7H-pyrrolo[2,3-d]pyrimidin-4-yl)-1H-pyrazol-1-yl]-1-(1-{[2-(trifluoromethyl)pyrimidin-4-yl]carbonyl}piperidin-4-yl)azetidin-3-yl]acetonitrile]
N#CC[C@]1(n2cc(-c3ncnc4[nH]ccc34)cn2)C[C@H](N2CCN(C(=O)c3ccnc(C(F)(F)F)n3)CC2)C1 [Compound 10, [trans-1-[4-[7H-pyrrolo[2,3-d]pyrimidin-4-yl)-1H-pyrazol-1-yl]-3-(4-{[2-(trifluoromethyl)pyrimidin-4-yl]carbonyl}piperazin-1-yl)cyclobutyl]acetonitrile]
C[C@H](NC(=O)c1cc(F)c(N2CC(CC#N)(n3cc(-c4ncnc5[nH]ccc45)cn3)C2)cc1F)C(F)(F)F [Compound 16, 4-{3-(cyanomethyl)-3-[4-(7H-pyrrolo[2,3-d]pyrimidin-4-yl)-1H-pyrazol-1-yl]azetidin-1-yl}-2,5-difluoro-N-[(1S)-2,2,2-trifluoro-1-methylethyl]benzamide]
N#CCC1(n2cc(-c3ncnc4[nH]ccc34)cn2)CN([C@H]2CC[C@@H](Oc3cc(CCO)nc(C(F)(F)F)n3)CC2)C1 [Compound 18, {1-(cis-4-{[6-(2-hydroxyethyl)-2-(trifluoromethyl)pyrimidin-4-yl]oxy}cyclohexyl)-3-[4-(7H-pyrrolo[2,3-d]pyrimidin-4-yl)-1H-pyrazol-1-yl]azetidin-3-yl}acetonitrile]
CCNCc1cc(O[C@H]2CC[C@@H](N3CC(CC#N)(n4cc(-c5ncnc6[nH]ccc56)cn4)C3)CC2)nc(C(F)(F)F)c1 [Compound 19, {1-(cis-4-{[4-[(ethylamino)methyl]-6-(trifluoromethyl)pyridin-2-yl]oxy}cyclohexyl)-3-[4-(7H-pyrrolo[2,3-d]pyrimidin-4-yl)-1H-pyrazol-1-yl]azetidin-3-yl}acetonitrile]
CC(C)(O)c1cc(O[C@H]2CC[C@@H](N3CC(CC#N)(n4cc(-c5ncnc6[nH]ccc56)cn4)C3)CC2)nc(C(F)(F)F)c1 [Compound 20, {1-(cis-4-{[4-(1-hydroxy-1-methylethyl)-6-(trifluoromethyl)pyridin-2-yl]oxy}cyclohexyl)-3-[4-(7H-pyrrolo[2,3-d]pyrimidin-4-yl)-1H-pyrazol-1-yl]azetidin-3-yl}acetonitrile]
C[C@@H](CO)NCc1cc(OC2CCN([C@H]3C[C@](CC#N)(n4cc(-c5ncnc6[nH]ccc56)cn4)C3)CC2)nc(C(F)(F)F)c1 [Compound 23, {trans-3-(4-{[4-({[(1S)-2-hydroxy-1-methylethyl]amino}methyl)-6-(trifluoromethyl)pyridin-2-yl]oxy}piperidin-1-yl)-1-[4-(7H-pyrrolo[2,3-d]pyrimidin-4-yl)-1H-pyrazol-1-yl]cyclobutyl}acetonitrile]
C[C@@H](O)CNCc1cc(OC2CCN([C@H]3C[C@](CC#N)(n4cc(-c5ncnc6[nH]ccc56)cn4)C3)CC2)nc(C(F)(F)F)c1 [Compound 24, {trans-3-(4-{[4-({[(2R)-2-hydroxypropyl]amino}methyl)-6-(trifluoromethyl)pyridin-2-yl]oxy}piperidin-1-yl)-1-[4-(7H-pyrrolo[2,3-d]pyrimidin-4-yl)-1H-pyrazol-1-yl]cyclobutyl}acetonitrile]
C[C@H](O)CNCc1cc(OC2CCN([C@H]3C[C@](CC#N)(n4cc(-c5ncnc6[nH]ccc56)cn4)C3)CC2)nc(C(F)(F)F)c1 [Compound 25, {trans-3-(4-{[4-({[(2S)-2-hydroxypropyl]amino}methyl)-6-(trifluoromethyl)pyridin-2-yl]oxy}piperidin-1-yl)-1-[4-(7H-pyrrolo[2,3-d]pyrimidin-4-yl)-1H-pyrazol-1-yl]cyclobutyl}acetontrile]
N#CC[C@]1(n2cc(-c3ncnc4[nH]ccc34)cn2)C[C@H](N2CCC(Oc3cc(CCO)cc(C(F)(F)F)n3)CC2)C1 [Compound 26, {trans-3-(4-{[4-(2-hydroxyethyl)-6-(trifluoromethyl)pyridin-2-yl]oxy}piperidin-1-yl)-1-[4-(7H-pyrrolo[2,3-d]pyrimidin-4-yl)-1H-pyrazol-1-yl]cyclobutyl}acetonitrile]
N[C@H]1CC[C@H](Cc2nc(-c3ccc(F)cc3)c3cnc(NCCCc4ccccc4)nn23)CC1 [Example 14, trans-7-((4-Aminocyclohexyl)methyl)-5-(4-fluorophenyl)-N-(3-phenylpropyl)imidazo[5,1-f][1,2,4]triazin-2-amine]

biological target: JAK1 (Homo sapiens (Human), UniProt P23458); experiment: not given; conditions: 1 mM ATP; cited from earlier work
Sequence (P23458 whole entry, species assumed): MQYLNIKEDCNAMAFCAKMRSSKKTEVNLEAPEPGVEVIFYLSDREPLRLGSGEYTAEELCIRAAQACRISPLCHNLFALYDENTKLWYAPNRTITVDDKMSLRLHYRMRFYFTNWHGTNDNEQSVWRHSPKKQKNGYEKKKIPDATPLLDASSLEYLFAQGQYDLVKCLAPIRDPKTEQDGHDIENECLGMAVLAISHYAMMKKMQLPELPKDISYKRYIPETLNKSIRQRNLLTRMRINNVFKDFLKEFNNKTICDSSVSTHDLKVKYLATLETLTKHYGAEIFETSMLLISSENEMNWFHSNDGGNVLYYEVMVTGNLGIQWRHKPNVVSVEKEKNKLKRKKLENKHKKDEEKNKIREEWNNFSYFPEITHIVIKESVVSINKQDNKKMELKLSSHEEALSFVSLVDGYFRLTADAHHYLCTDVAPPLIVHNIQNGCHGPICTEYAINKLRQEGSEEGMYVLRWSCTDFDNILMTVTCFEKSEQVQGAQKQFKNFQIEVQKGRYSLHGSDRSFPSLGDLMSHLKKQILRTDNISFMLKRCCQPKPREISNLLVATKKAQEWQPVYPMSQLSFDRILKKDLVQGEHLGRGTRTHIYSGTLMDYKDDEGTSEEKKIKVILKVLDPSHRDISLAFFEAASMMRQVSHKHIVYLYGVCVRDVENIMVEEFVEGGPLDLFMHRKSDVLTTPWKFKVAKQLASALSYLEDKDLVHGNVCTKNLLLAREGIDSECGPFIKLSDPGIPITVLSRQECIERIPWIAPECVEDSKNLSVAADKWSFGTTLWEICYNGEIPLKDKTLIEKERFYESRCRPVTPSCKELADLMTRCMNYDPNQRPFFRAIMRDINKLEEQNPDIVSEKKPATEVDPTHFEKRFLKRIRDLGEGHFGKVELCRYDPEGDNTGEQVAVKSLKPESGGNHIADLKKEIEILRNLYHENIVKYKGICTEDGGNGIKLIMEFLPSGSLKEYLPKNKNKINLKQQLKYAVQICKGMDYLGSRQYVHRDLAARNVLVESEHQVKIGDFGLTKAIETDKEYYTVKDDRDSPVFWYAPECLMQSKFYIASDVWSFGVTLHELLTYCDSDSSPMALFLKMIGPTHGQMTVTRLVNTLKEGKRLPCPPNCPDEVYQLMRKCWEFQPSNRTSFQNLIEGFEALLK

IC50, < 10 nM:
CCCCNc1ncc2c(-c3ccc(F)cc3)nc(C[C@H]3CC[C@H](N)CC3)n2n1 [Example 13, trans-7-[(4-Aminocyclohexyl)methyl]-N-butyl-5-(4-fluorophenyl)imidazo[5,1-f][1,2,4]triazin-2-amine]
N[C@H]1CC[C@H](Cc2nc(-c3ccc(F)cc3)c3cnc(NCCCc4ccccc4)nn23)CC1 [Example 14, trans-7-((4-Aminocyclohexyl)methyl)-5-(4-fluorophenyl)-N-(3-phenylpropyl)imidazo[5,1-f][1,2,4]triazin-2-amine]
CCCCNc1ncc2c(-c3ccc(F)cc3)nc(C3CCC(N)CC3)n2n1 (centres unmarked) [Example 15, 7-(4-Aminocyclohexyl)-N-butyl-5-(4-fluorophenyl)imidazo[5,1-f][1,2,4]triazin-2-amine]

biological target: c-Mer (Homo sapiens (Human), UniProt Q12866); experiment: TAM Enzymatic Assay (HTRF), c-Mer; format: biochemical; conditions: 0.0625 nM c-Mer
Sequence (Q12866 21-999): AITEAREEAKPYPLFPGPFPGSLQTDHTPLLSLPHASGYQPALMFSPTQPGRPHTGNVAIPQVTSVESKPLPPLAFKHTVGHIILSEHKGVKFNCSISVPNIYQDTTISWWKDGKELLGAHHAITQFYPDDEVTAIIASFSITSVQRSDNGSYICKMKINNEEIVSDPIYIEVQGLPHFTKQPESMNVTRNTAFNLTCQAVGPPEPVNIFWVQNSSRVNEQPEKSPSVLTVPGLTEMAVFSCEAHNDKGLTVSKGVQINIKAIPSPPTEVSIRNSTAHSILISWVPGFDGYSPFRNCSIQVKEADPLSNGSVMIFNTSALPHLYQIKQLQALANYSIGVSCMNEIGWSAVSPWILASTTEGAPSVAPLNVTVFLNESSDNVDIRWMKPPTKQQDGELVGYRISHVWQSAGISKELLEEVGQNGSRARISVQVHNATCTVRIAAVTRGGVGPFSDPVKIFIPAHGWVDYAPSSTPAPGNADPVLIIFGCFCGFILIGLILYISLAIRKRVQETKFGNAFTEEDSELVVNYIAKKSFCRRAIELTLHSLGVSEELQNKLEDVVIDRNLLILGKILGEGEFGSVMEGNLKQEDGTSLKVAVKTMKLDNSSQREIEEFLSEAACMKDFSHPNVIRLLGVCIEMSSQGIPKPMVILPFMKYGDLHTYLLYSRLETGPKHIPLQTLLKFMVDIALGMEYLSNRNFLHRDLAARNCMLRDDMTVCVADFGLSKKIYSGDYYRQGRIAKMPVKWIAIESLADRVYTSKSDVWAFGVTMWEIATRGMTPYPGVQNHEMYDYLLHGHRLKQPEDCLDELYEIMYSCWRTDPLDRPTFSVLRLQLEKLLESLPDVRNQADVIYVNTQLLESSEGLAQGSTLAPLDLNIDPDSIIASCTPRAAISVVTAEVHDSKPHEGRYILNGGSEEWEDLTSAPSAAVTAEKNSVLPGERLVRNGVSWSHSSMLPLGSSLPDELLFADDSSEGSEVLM

IC50, ≤ 100 nM:
N[C@H]1CC[C@H](Cc2nc(-c3ccc(F)cc3)c3cnc(NCCCc4ccccc4)nn23)CC1 [Example 14, trans-7-((4-Aminocyclohexyl)methyl)-5-(4-fluorophenyl)-N-(3-phenylpropyl)imidazo[5,1-f][1,2,4]triazin-2-amine]

biological target: Tyro3 (Homo sapiens (Human), UniProt Q06418); experiment: TAM Enzymatic Assay (HTRF), Tyro3; format: biochemical; conditions: 0.366 nM Tyro3, HTRF
Sequence (Q06418 41-890): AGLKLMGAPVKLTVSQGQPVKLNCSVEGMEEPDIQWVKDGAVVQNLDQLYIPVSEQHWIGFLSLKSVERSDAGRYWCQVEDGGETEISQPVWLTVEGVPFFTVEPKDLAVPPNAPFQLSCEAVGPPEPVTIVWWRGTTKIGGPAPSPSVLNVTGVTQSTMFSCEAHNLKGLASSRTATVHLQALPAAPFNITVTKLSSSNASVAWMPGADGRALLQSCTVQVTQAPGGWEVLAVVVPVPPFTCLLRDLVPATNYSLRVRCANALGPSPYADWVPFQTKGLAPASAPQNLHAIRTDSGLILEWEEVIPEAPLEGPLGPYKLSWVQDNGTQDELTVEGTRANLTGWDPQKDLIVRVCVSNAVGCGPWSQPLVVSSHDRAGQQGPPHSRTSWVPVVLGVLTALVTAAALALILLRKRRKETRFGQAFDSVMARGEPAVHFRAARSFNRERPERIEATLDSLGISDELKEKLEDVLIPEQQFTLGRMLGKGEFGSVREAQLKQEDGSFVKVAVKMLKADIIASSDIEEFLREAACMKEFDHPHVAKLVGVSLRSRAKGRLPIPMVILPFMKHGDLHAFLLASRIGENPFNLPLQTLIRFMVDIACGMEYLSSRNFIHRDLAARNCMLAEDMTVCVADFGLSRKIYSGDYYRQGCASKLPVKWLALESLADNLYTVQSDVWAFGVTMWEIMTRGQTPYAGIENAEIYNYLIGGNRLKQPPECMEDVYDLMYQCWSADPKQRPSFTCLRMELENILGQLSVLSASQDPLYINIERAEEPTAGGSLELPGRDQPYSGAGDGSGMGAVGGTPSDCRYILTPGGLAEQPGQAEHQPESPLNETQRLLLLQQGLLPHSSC
Method: The kinase assay buffer contained 50 mM HEPES, pH7.5, 10 mM MgCl2, 1 mM EGTA, 0.01% NP-40 and 2 mM DTT. 0.1 ul test compounds dissolved in DMSO were transferred from compound plates to white 384-well assay plates (Greiner [sequence] plates). […] 4 ul enzyme solution (or assay buffer for the enzyme blank) was added to the appropriate wells in each plate, and then 4 ul/well substrate solution was added to initiate the reaction. The plate was protected from light and incubated at room temperature for 60 min. […] The plate was incubated for 1 h at room temperature, and HTRF (homogenous time resolved fluorescence) signal was measured on a PHERAstar FS plate reader (BMG labtech). Percentage of inhibition was calculated for each concentration and IC50 value was generated from curve fitting with GraphPad Prism software.

IC50, > 1000 nM:
N[C@H]1CC[C@H](Cc2nc(-c3ccc(F)cc3)c3cnc(NCCCc4ccccc4)nn23)CC1 [Example 14, trans-7-((4-Aminocyclohexyl)methyl)-5-(4-fluorophenyl)-N-(3-phenylpropyl)imidazo[5,1-f][1,2,4]triazin-2-amine]
